From patent publication US11254686B1 (Corvus Pharmaceuticals, Inc., priority 2017, dated 2022)
Read-outs that look alike come from different tables or passages of the source.

Experiments:
[1] = test system: CYP 450 (isoform not given); experiment: CYP450 inhibition at 10 μM; type: in vitro ADME; conditions: read-out: CYP 450 % INH @ 10 μM
[2] = target: adenosine A2B receptor (Homo sapiens (Human), UniProt P29275); experiment: Adenosine receptor activity assay (Table 1), A2B activity; type: biochemical; conditions: for IC50: read-out: Ave A2B cAMP IC50
[3] = target: T1, adenosine A1 receptor (Homo sapiens (Human), UniProt P30542); experiment: Adenosine receptor activity assay (Table 1), A1 cAMP; type: cell-based
[4] = Hepatocyte intrinsic clearance, rat; type: in vitro ADME; conditions: hepatocytes
[5] = target: adenosine A2A receptor (Homo sapiens (Human), UniProt P29274); experiment: Adenosine receptor activity assay (Table 1), A2A activity; type: biochemical; conditions: read-out: Ave A2A cAMP IC50
[6] = target: T2, adenosine A3 receptor (Homo sapiens (Human), UniProt P0DMS8); experiment: Adenosine receptor activity assay (Table 1), A3 cAMP; type: cell-based
[7] = Hepatocyte intrinsic clearance, human; type: in vitro ADME; conditions: hepatocytes
[8] = Liver microsome intrinsic clearance (LM CLint), rat; type: in vitro ADME
[9] = Liver microsome intrinsic clearance (LM CLint), human; type: in vitro ADME
[10] = target: T1, adenosine A1 receptor; experiment: Adenosine receptor activity assay (Table 1), A1 cAMP; type: biochemical
Procedure: (§1) Table 1. Compounds (e.g., Adenosine Receptor modulators) and activity assay results. The legend is as follows: A=<10 nM; B=10-50 nM; C=50-100 nM; D=100-500; and E=>500 nM. The ratio corresponds to the A2A activity to the A2B activity; or A2A/A2B.

[11] = target: T2, adenosine A3 receptor; experiment: Adenosine receptor activity assay (Table 1), A3 cAMP; type: biochemical
Procedure: as §1

[12] = A2A activity to A2B activity (A2A/A2B)
[13] = A2A activity to the A2B activity, A2A/A2B

T1 sequence (P30542 whole entry): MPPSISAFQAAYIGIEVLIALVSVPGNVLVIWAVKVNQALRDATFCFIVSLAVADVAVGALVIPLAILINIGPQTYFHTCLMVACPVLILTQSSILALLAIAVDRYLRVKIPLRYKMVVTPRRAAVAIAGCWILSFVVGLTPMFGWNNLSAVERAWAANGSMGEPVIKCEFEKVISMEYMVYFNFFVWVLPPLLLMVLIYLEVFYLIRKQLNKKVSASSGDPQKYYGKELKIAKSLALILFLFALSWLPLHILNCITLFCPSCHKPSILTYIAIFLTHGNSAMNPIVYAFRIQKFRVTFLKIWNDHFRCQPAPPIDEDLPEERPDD
Chain of adenosine A2A receptor (P29274 whole entry): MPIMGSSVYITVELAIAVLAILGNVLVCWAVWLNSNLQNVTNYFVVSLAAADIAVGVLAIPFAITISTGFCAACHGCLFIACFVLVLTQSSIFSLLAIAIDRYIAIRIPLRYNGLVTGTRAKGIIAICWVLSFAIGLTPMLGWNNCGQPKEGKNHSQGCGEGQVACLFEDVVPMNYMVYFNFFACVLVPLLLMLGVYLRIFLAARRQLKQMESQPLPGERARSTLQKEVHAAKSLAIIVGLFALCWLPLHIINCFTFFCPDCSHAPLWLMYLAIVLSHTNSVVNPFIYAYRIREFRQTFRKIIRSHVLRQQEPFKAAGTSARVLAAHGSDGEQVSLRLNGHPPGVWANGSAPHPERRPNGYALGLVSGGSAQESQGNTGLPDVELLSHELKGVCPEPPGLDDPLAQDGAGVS
Chain of adenosine A2B receptor (P29275 whole entry): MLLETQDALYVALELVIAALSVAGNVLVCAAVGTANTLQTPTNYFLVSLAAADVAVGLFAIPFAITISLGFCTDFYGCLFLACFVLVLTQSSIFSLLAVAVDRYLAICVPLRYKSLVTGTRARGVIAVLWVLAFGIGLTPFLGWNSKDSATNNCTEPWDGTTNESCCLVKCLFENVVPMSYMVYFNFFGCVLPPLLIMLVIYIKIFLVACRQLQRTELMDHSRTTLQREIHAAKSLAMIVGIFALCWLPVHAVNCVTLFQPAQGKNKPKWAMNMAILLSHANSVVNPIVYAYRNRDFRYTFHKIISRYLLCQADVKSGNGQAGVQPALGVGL
T2 sequence (P0DMS8 whole entry): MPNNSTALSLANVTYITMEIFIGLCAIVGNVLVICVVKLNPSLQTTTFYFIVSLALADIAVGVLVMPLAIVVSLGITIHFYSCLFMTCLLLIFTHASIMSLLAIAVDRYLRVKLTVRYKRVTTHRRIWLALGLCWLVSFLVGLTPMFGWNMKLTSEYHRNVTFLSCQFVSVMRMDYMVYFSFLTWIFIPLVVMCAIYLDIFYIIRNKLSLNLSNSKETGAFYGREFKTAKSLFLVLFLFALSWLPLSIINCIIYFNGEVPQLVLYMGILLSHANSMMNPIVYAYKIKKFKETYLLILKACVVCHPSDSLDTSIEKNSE

Row | SMILES | inhibition at 10 µM [1] | Ratio [2, 12] | IC50 [2] | IC50 [3] | hepatocyte CLint [4] | IC50 [5] | IC50 [6] | hepatocyte CLint [7] | LM CLint [8] | LM CLint [9] | Ratio [2, 13] | IC50 [10] | IC50 [11]
1 | CO[C@H]1CCN(C(=O)c2nc(N[C@@H](C)c3cncc(F)c3)nc3ccsc23)C1 [Example Z252, (2-(((S)-1-(5-Fluoropyridin-3-yl)ethyl)amino)thieno[3,2-d]pyrimidin-4-yl)((S)-3-methoxypyrrolidin-1-yl)methanone] | 55.9% | 19.78 | 10 to 50 nM | > 500 nM |  | 100 to 500 nM | > 500 nM |  |  |  |  |  | 
2 | Cc1cc2nc(N[C@@H](C)c3ccccn3)nc(C(=O)N3CC[C@H](O)C3)c2s1 [Example Z282, ((S)-3-Hydroxypyrrolidin-1-yl)(6-methyl-2-(((S)-1-(pyridin-2-yl)ethyl)amino)thieno[3,2-d]pyrimidin-4-yl)methanone] | -18.8% | 77.76 | 10 to 50 nM | > 500 nM | 17.2 µL/min/1e6 cells | > 500 nM | > 500 nM | 4.11 µL/min/1e6 cells |  |  |  |  | 
3 | Cc1cc2nc(N[C@@H](C)c3cccnc3)nc(C(=O)N3CCC3)c2s1 [Example Z283, (S)-Azetidin-1-yl(6-methyl-2-((1-(pyridin-3-yl)ethyl)amino)thieno[3,2-d]pyrimidin-4-yl)methanone] | 80.5% | 54.37 | < 10 nM | > 500 nM | 42.7 µL/min/1e6 cells | 100 to 500 nM | > 500 nM | 26.5 µL/min/1e6 cells |  |  |  |  | 
4 | C[C@H](Nc1nc(C(=O)N2CC[C@H](CO)C2)c2sccc2n1)c1cncc(F)c1 [Example Z294, (2-(((S)-1-(5-Fluoropyridin-3-yl)ethyl)amino)thieno[3,2-d]pyrimidin-4-yl)((S)-3-(hydroxymethyl)pyrrolidin-1-yl)methanone] | 37.6% | 84.08 | < 10 nM | > 500 nM | 17.2 µL/min/1e6 cells | 100 to 500 nM | > 500 nM | 15.6 µL/min/1e6 cells |  |  |  |  | 
5 | Cc1cc2nc(N[C@@H](C)c3ccccn3)nc(C(=O)N3CC[C@@H](O)C3)c2s1 [Example Z298, ((R)-3-Hydroxypyrrolidin-1-yl)(6-methyl-2-(((S)-1-(pyridin-2-yl)ethyl)amino)thieno[3,2-d]pyrimidin-4-yl)methanone] | -13.9% | 64.00 | < 10 nM | > 500 nM | 18.8 µL/min/1e6 cells | 100 to 500 nM | > 500 nM | 5.35 µL/min/1e6 cells |  |  |  |  | 
6 | CO[C@H]1CCN(C(=O)c2nc(N[C@@H](C)c3cncc(F)c3)nc3cc(C)sc23)C1 [Example Z301, (2-(((S)-1-(5-Fluoropyridin-3-yl)ethyl)amino)-6-methylthieno[3,2-d]pyrimidin-4-yl)((S)-3-methoxypyrrolidin-1-yl)methanone] | 52% | 83.47 | < 10 nM | > 500 nM | 51.7 µL/min/1e6 cells | 100 to 500 nM | 50 to 100 nM | 23.8 µL/min/1e6 cells |  |  |  |  | 
7 | C[C@H](Nc1nc(C(=O)N2CC(N)C2)c2sccc2n1)c1cncc(F)c1 [Example Z401, (S)-(3-Aminoazetidin-1-yl)(2-((1-(5-fluoropyridin-3-yl)ethyl)amino)thieno[3,2-d]pyrimidin-4-yl)methanone] |  |  | 10 to 50 nM |  |  |  |  |  | 5.32 μL/min/mg/protein | 2.64 μL/min/mg/protein |  |  | 
8 | Cc1cc2nc(N[C@@H](C)c3cncc(F)c3)nc(C(=O)N3CC[C@H](N)C3)c2s1 [Example Z412, ((S)-3-Aminopyrrolidin-1-yl)(2-(((S)-1-(5-fluoropyridin-3-yl)ethyl)amino)-6-methylthieno[3,2-d]pyrimidin-4-yl)methanone] |  |  | 10 to 50 nM |  |  | > 500 nM |  |  | 26.34 μL/min/mg/protein | 0.15 μL/min/mg/protein | 166.77 | > 500 nM | > 500 nM
9 | Cc1csc2c(C(=O)N3CCC3)nc(N[C@@H](C)c3cncc(F)c3)nc12 [Example Z415, (S)-Azetidin-1-yl(2-((1-(5-fluoropyridin-3-yl)ethyl)amino)-7-methylthieno[3,2-d]pyrimidin-4-yl)methanone] |  |  | < 10 nM |  |  | 10 to 50 nM |  |  | 56.26 μL/min/mg/protein | 82.97 μL/min/mg/protein | 21.01 | 50 to 100 nM | > 500 nM
10 | C[C@H](Nc1nc(C(=O)N2CC(CN)C2)c2sccc2n1)c1cncc(F)c1 [Example Z419, (S)-(3-(Aminomethyl)azetidin-1-yl)(2-((1-(5-fluoropyridin-3-yl)ethyl)amino)thieno[3,2-d]pyrimidin-4-yl)methanone] |  |  | 10 to 50 nM |  |  |  |  |  | 9.09 μL/min/mg/protein | 0.69 μL/min/mg/protein |  |  | 
11 | CC(=O)Nc1ccc(CCNC(=O)c2nc(N[C@@H](C)c3cncc(F)c3)nc3ccsc23)cc1 [Example Z421, (S)—N-(4-Acetamidophenethyl)-2-((1-(5-fluoropyridin-3-yl)ethyl)amino)thieno[3,2-d]pyrimidine-4-carboxamide] |  |  | 10 to 50 nM |  |  |  |  |  | 85.16 μL/min/mg/protein | 228.45 μL/min/mg/protein |  |  | 

Next, values leading:

Row | inhibition at 10 µM [1] | Ratio [2, 12] | IC50 [2] | IC50 [3] | hepatocyte CLint [4] | IC50 [5] | IC50 [6] | hepatocyte CLint [7] | LM CLint [8] | LM CLint [9] | Ratio [2, 13] | IC50 [10] | IC50 [11] | SMILES
12 | 27% | 52.81 | < 10 nM | > 500 nM | 20.6 µL/min/1e6 cells | 100 to 500 nM | > 500 nM | 6.78 µL/min/1e6 cells |  |  |  |  |  | C[C@H](Nc1nc(C(=O)N2CC(O)C2)c2sccc2n1)c1cncc(F)c1 [Example Z198, (S)-(2-((1-(5-Fluoropyridin-3-yl)ethyl)amino)thieno[3,2-d]pyrimidin-4-yl)(3-hydroxyazetidin-1-yl)methanone]
13 | 46% | 162.88 | < 10 nM | > 500 nM | 51.7 µL/min/1e6 cells | 100 to 500 nM | 50 to 100 nM | 20.3 µL/min/1e6 cells |  |  |  |  |  | CNc1cc2nc(N[C@@H](C)c3cncc(F)c3)nc(C(=O)N3CCCC3)c2s1 [Example Z210, (S)-(2-((1-(5-Fluoropyridin-3-yl)ethyl)amino)-6-(methylamino)thieno[3,2-d]pyrimidin-4-yl)(pyrrolidin-1-yl)methanone]
14 | 67% | 201.82 | < 10 nM | > 500 nM | 53.2 µL/min/1e6 cells | 100 to 500 nM | 50 to 100 nM | 15.8 µL/min/1e6 cells |  |  |  |  |  | CNc1cc2nc(N[C@@H](C)c3cncc(F)c3)nc(C(=O)N3CCC3)c2s1 [Example Z211, (S)-Azetidin-1-yl(2-((1-(5-fluoropyridin-3-yl)ethyl)amino)-6-(methylamino)thieno[3,2-d]pyrimidin-4-yl)methanone]
15 | 90% | 127.82 | < 10 nM | > 500 nM | 25.3 µL/min/1e6 cells | 100 to 500 nM | > 500 nM | 59.6 µL/min/1e6 cells |  |  |  |  |  | Cc1cc2nc(N[C@@H](C)c3cccnc3)nc(C(=O)N3CCCC3)c2s1 [Example Z213, (S)-(6-Methyl-2-((1-(pyridin-3-yl)ethyl)amino)thieno[3,2-d]pyrimidin-4-yl)(pyrrolidin-1-yl)methanone]
16 | 52.5% | 340.19 | < 10 nM | > 500 nM | 4.61 µL/min/1e6 cells | > 500 nM | 50 to 100 nM | 16.1 µL/min/1e6 cells |  |  |  |  |  | CNc1cc2nc(N[C@@H](C)c3cncc(F)c3)nc(C(=O)N3CC[C@@H](O)C3)c2s1 [Example Z224, (2-(((S)-1-(5-Fluoropyridin-3-yl)ethyl)amino)-6-(methylamino)thieno[3,2-d]pyrimidin-4-yl)((R)-3-hydroxypyrrolidin-1-yl)methanone]
17 | 57% | 43.99 | < 10 nM | > 500 nM | 21.1 µL/min/1e6 cells | 100 to 500 nM | > 500 nM | 44.5 µL/min/1e6 cells |  |  |  |  |  | C[C@H](Nc1nc(C(=O)N2CC[C@H](F)C2)c2sccc2n1)c1cncc(F)c1 [Example Z225, (2-(((S)-1-(5-Fluoropyridin-3-yl)ethyl)amino)thieno[3,2-d]pyrimidin-4-yl)((S)-3-fluoropyrrolidin-1-yl)methanone]
18 | 75% | 88.17 | < 10 nM | > 500 nM | 41.1 µL/min/1e6 cells | 100 to 500 nM | > 500 nM | 72.7 µL/min/1e6 cells |  |  |  |  |  | C[C@H](Nc1nc(C(=O)N2CCCC2)c2sccc2n1)c1cncc(Cl)c1 [Example Z231, (S)-(2-((1-(5-Chloropyridin-3-yl)ethyl)amino)thieno[3,2-d]pyrimidin-4-yl)(pyrrolidin-1-yl)methanone]
19 | 49.1% | 19.74 | < 10 nM | > 500 nM |  | 100 to 500 nM | > 500 nM |  |  |  |  |  |  | CO[C@@H]1CCN(C(=O)c2nc(N[C@@H](C)c3cncc(F)c3)nc3ccsc23)C1 [Example Z251, (2-(((S)-1-(5-Fluoropyridin-3-yl)ethyl)amino)thieno[3,2-d]pyrimidin-4-yl)((R)-3-methoxypyrrolidin-1-yl)methanone]
